Five compounds from patent publication US20240368125A1, “NOVEL PYRAZINYL-TRIAZOLE COMPOUNDS AS PESTICIDES” (Bayer Aktiengesellschaft, priority 2021, published 2024) can be followed below.

Holding throughout (format): in vivo
For experiment [1], the system named is adult cat fleas (Ctenocephalides felis). The experiment in a line: Ctenocephalides felis in-vitro contact test, adult cat flea. As to conditions: Ctenocephalides felis; 1 μg/cm^2 (=100 g/ha), after 48 hours; read-out: efficacy (fleas dead or moribund).
Experiment [2] deals with larvae of the banded cucumber beetle (Diabrotica balteata). The experiment in a line: Diabrotica balteata spray test. The following applies: Diabrotica balteata, 168 h; 100 g/ha (=32 μg/well), wheat seeds, after 7 days; read-out: efficacy (seedlings grown). In outline:
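Germinated wheat seedlings (5 per well, on agar) sprayed with compound in acetone/DMF with emulsifier-containing water, then infested with 10–20 Diabrotica balteata larvae. Efficacy (%) scored after 7 days from seedling growth: 100% = growth as untreated uninfested control, 0% = no seedlings grown.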

For experiment [3], the system named is adult brown dog ticks (Rhipicephalus sanguineus). The experiment in a line: Rhipicephalus sanguineus in-vitro contact test, adult brown dog ticks. The following applies: Rhipicephalus sanguineus; 1 μg/cm^2 (=100 g/ha), after 48 hours; read-out: efficacy (ticks dead or moribund). A digest of the protocol:
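Acetone solution (900 ppm giving 5 μg/cm²) coated on inner walls of glass tubes; after drying, 5-10 adult ticks added and held at room temperature 48 h. Ticks then placed on 45-50 °C plate ≤5 min; those unable to climb away scored dead/moribund, efficacy as % affected.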

The subject of experiment [4] is adult mosquitoes Anopheles funestus strain FUMOZ-R. The experiment in a line: Anopheles funestus test (ANPHFU surface treatment & contact assay). The following applies: 24 hours after contact, read-out: efficacy (mortality); for mortality at 4 mg/m2: surface concentration 4 mg/m^2, 30 min exposure; for mortality at 20 mg/m2: surface concentration 20 mg/m^2, 30 min exposure. Here is the method: Anopheles funestus Test (ANPHFU Surface Treatment & Contact Assay
(§1) Solvent: Aceton+2000 ppm rapeseed oil methyl ester (RME)
In order to produce a sufficient, active ingredient containing solution it is necessary to solve the test compound in the solvent-mix (acetone at 2 mg/ml/RME 2000 ppm). This solution is pipetted onto a glazed tile and after evaporation of the acetone, adult mosquitoes of the species Anopheles funestus strain FUMOZ-R (Hunt et al., Med. Vet. Entomol. 2005 September; 19(3): 271-275) are placed onto the dried surface. The exposure time is 30 minutes. Mortality in percent (%) is determined 24 hours after contact of the insects to the treated surface. 100% mortality means that all tested insects are dead, whereas 0% means that no insect died.

Experiment [5] deals with adult mosquitoes Aedes aegypti strain MONHEIM. The experiment in a line: Aedes aegypti test (AEDSAE surface treatment & contact assay). As to conditions: 24 hours after contact, read-out: efficacy (mortality); for mortality at 4 mg/m2: surface concentration 4 mg/m^2, 30 min exposure; for mortality at 20 mg/m2: surface concentration 20 mg/m^2, 30 min exposure. Here is the method: Aedes aegypti Test (AEDSAE Surface Treatment & Contact Assay
as §1
In order to produce a sufficient, active ingredient containing solution it is necessary to solve the test compound in the solvent-mix (acetone at 2 mg/ml/RME 2000 ppm). This solution is pipetted onto a glazed tile and after evaporation of the acetone, adult mosquitoes of the species Aedes aegypti strain MONHEIM are placed onto the dried surface. The exposure time is 30 minutes. Mortality in percent (%) is determined 24 hours after contact of the insects to the treated surface. 100% mortality means that all tested insects are dead, whereas 0% means that no insect died.

Experiment [6] deals with fall armyworm larvae (Spodoptera frugiperda). The experiment in a line: Spodoptera frugiperda spray test (SPODFR). As to conditions: 168 h; for mortality at 100 g/ha: in Zea mays. In outline: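 Compound in acetone/dimethylformamide, diluted with water containing 1000 ppm alkylarylpolyglycol ether emulsifier. Maize leaf sections sprayed, dried, then infested with fall armyworm larvae. Mortality (%) scored after 7 days, 100% meaning all caterpillars killed.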

Experiment [7] concerns larvae of the southern green stink bug (Nezara viridula). The experiment in a line: Nezara viridula spray test. The following applies: Nezara viridula, in Hordeum vulgare, 96 h. In outline:
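Barley plants sprayed with compound in acetone/DMF diluted in water with 1000 ppm alkylarylpolyglycol ether emulsifier, then infested with N. viridula larvae. Mortality (%) scored after 4 days; 100% means all bugs killed.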

Usually mortality stands for the share of the test organisms that died. In the case of `C[C@H](NC(=O)c1cc(OC(F)(F)F)cc(C2CC2)c1)c1ncnn1-c1cnc(C(=O)N(C)C)cn1` [Example I-002], the pest or weed control at 1 µg/cm2 in experiment [1] came to 100%. For the same compound, the pest or weed control at 32 µg/disc, 100 g/ha in experiment [2] was determined as 100%. Further, the pest or weed control at 1 µg/cm2, 100 g/ha in experiment [3] was found to be 100%. Moreover, in experiment [4], the mortality at 4 mg/m2 fell in the range of 85 to 100% and the mortality at 20 mg/m2 was 85 to 100%. In experiment [5], the mortality at 4 mg/m2 was 80 to 100% and the mortality at 20 mg/m2 fell in the range of 80 to 100%. Moreover, in experiment [6] (SPODFR, 4 g ai/ha, 7 dat, read-out: % Efficacy), the Emax at 4 g/ha amounted to 100%. For the same compound, the Emax at 20 g/ha in experiment [6] (SPODFR, 20 g ai/ha, 7 dat, read-out: % Efficacy) was 100%. The Emax at 100 g/ha in experiment [6] (SPODFR, 100 g ai/ha, 7 dat, read-out: % Efficacy) came to 100%. For the same compound, the mortality at 100 g/ha in experiment [6] amounted to 100%.
For the compound `C[C@H](NC(=O)c1cc(C(F)(F)F)cc(C(F)(F)F)c1)c1ncnn1-c1cnc(C(=O)N(C)C2CC2)cn1` [Example I-007], in experiment [1], the pest or weed control at 1 µg/cm2 is 100%. Besides, the pest or weed control at 32 µg/disc, 100 g/ha in experiment [2] turned out to be 100%. Also, the pest or weed control at 1 µg/cm2, 100 g/ha in experiment [3] was found to be 100%. For the same compound, in experiment [5], the mortality at 4 mg/m2 lay within 80 to 100% and the mortality at 20 mg/m2 lay in the range of 80 to 100%. Besides, the mortality at 100 g/ha in experiment [6] was found to be 100%.
For the compound `C[C@H](NC(=O)c1cc(C(F)(F)F)cc(C(F)(F)F)c1)c1ncnn1-c1cnc(C(=O)N(C)CC2CC2)cn1` [Example I-008], in experiment [1], the pest or weed control at 1 µg/cm2 was determined as 100%. This compound also came in with a mortality at 500 g/ha in experiment [7] of 100%. Further, the pest or weed control at 32 µg/disc, 100 g/ha in experiment [2] was 100%. Moreover, the pest or weed control at 1 µg/cm2, 100 g/ha in experiment [3] was 100%. In addition, in experiment [5], the mortality at 4 mg/m2 lay within 80 to 100% and the mortality at 20 mg/m2 lay within 80 to 100%. Moreover, in experiment [6], the mortality at 100 g/ha stood at 100%.
As to `CNC(=O)c1cnc(-n2ncnc2[C@H](C)NC(=O)c2cc(C(F)(F)F)cc(C(F)(F)F)c2)cn1` [Example I-009], in experiment [1], the pest or weed control at 1 µg/cm2 stood at 100%. Moreover, the mortality at 500 g/ha in experiment [7] is 100%. For the same compound, in experiment [3], the pest or weed control at 1 µg/cm2, 100 g/ha was found to be 100%. For the same compound, the mortality at 4 mg/m2 was 85 to 100% in experiment [4] and 80 to 100% in experiment [5]. Also, the values for the mortality at 20 mg/m2 in experiment [4] and in experiment [5] were 85 to 100% and 80 to 100%, respectively. The compound further had a mortality at 100 g/ha in experiment [6] of 100%.
Regarding `CNC(=O)c1cnc(-n2ncnc2[C@H](C)NC(=O)c2cc(OC(F)(F)F)cc(C3CC3)c2)cn1` [Example I-021], the pest or weed control at 1 µg/cm2 in experiment [1] is 100%. Also, in experiment [7], the mortality at 500 g/ha amounted to 100%. In experiment [2], the pest or weed control at 32 µg/disc, 100 g/ha stood at 100%. In experiment [3], the pest or weed control at 1 µg/cm2, 100 g/ha was 100%. Further, in experiment [5], the mortality at 4 mg/m2 is 80 to 100% and the mortality at 20 mg/m2 lay within 80 to 100%. The same compound showed a mortality at 100 g/ha in experiment [6] of 100%.
